Test results taken from patent US3941842A, “P,P'-Disubstituted α-trichloromethylbenzylanilines” (priority 1972, dated 1976).

Experiments:
Musca domestica Rsp = assay: Topical LD50 to adult female RSP houseflies; conditions: for LD50: Musca domestica, read-out: Topical LD50, Musca domestica Rsp, Alone; for LD50 / Topical LD50, Musca domestica Rsp, with pb: topical; for Topical LD50, Musca domestica Rsp, with pb: RSP strain, synergized with piperonyl butoxide; for SR, Musca domestica Rsp: synergistic ratio: LD50 alone/LD50 synergized with piperonyl butoxide
Experimental: (§1) The compounds of the present invention were tested for insecticidal activity by standard methods, and compared with the insecticidal activities of DDT and symmetrical analogs of DDT, such methoxychlor. Toxicological methods for the determination of the topical LD50 values to adult female SNAIDM and RSP houseflies, Musca domestica L. and to Phormia regina, and LC50 values to Culex pipiens quinquefasciatus Say, and Anopheles albimanus Weid mosquitoes were described by Metcalf el al., 44 Bull. World Health Org. 363 (1971). The methods for evaluation of metabolism by mouse liver homogenate and by female RSP housefly and salt-marsh caterpillar larvae Estigmene acrea Drury, were described by Kapoor et al., 18 J. Agr. Food Chem. 1145 (1970). The techniques for model eocsystem evluation were described by Metcalf et al., 5 J. Environ. Sci. Tech. 709 (1971).
(§2) Since piperonyl butoxide serves to block the action of MFO, the synergized LD50 values express the intrinsic toxicity of the compounds. With the detoxifying action of MFO enzymes blocked, the intrinsic toxicity of the compounds can thus be measured.

Culex fatigans larvae = assay: LC50 to Culex fatigans larvae; format: in vivo, Culex pipiens quinquefasciatus Say
Excerpt: (§3) World Health Org. 363 (1971). […] Food Chem. 1145 (1970). […] Sci. Tech. 709 (1971). The results are detailed in Table II. ##SPC1##

[1] = test system: Anopheles albimanus larvae; assay: LC50 to Anopheles albimanus larvae; format: in vivo, Anopheles albimanus Weid
Excerpt: as §3

[2] = test system: Musca domestica (SNAIDM and RSP strains), Phormia regina, Culex fatigans and Anopheles albimanus; assay: Insecticidal activity over the test insects (Table II, summarised in words); format: in vivo
Experimental: as §1, §2

Phormia regina = assay: whole plant or invertebrate; conditions: for LD50: Phormia regina, read-out: Topical LD50, Phormia regina, Alone; for LD50 / Topical LD50, Phormia regina, with pb: topical; for Topical LD50, Phormia regina, with pb: synergized with piperonyl butoxide; for SR, Phormia regina: synergistic ratio: LD50 alone/LD50 synergized with piperonyl butoxide
Experimental: as §1, with “363 (1971).” left out, “Food Chem. 1145 (1970).” left out, “Tech.” for “Tech. 709 (1971).”
as §2

Musca domestica Snaidm = assay: Topical LD50 to adult female SNAIDM houseflies; conditions: for LD50: Musca domestica, read-out: Topical LD50, Musca domestica Snaidm, Alone; for LD50 / Topical LD50, Musca domestica Snaidm, with pb: topical; for Topical LD50, Musca domestica Snaidm, with pb: SNAIDM strain, synergized with piperonyl butoxide; for SR, Musca domestica Snaidm: synergistic ratio: LD50 alone/LD50 synergized with piperonyl butoxide
Experimental: as §1, §2

[3] = Model ecosystem: distribution, ecological magnification and Biodegradability Index; conditions: 33 days, 5.0 mg 3H-ethoxyaniline to Sorghum
Excerpt: After the amounts of the various metabolites have been calculated and a determination is made as to which of the metabolites are to be designated as "polar" and which are to be designated as "non-polar", a Biodegradability Index (amount of polar metabolites/amount of nonpolar metabolites) may be calculated. Remembering that nonpolar compounds, such as DDT are readily soluble in the fatty tissues, but are not readily soluble in water based solutions, and that the cell fluid is essentially a water based solution, the lower the Biodegradability Index, the lower the amount of biodegradability of the compound. The higher the amount of polarity, the greater the likelihood that the polar compound will dissolve in water, a very polar compound, and be eliminated from the cell.
The environmental fate of any new pesticide is a factor of paramount importance in determining how and where it might be used. The behavior of ^3 H-α-trichloromethyl-p-ethoxybenzyl-p-ethoxyaniline has been studied by the model ecosystem technique following application of 5.0 mg. of labeled compound to Sorghum plants. A summary of
metabolites from the organisms in the model ecosystem after 33 days were
identified by cochromatography with standards of known constitution, by
appropriate chromogenic reagents, and by high-resolution mass
spectrometry. The data of Table IV indicate the O-dealkylation of
Food Chem. 1 (1972). Ethoxychlor was found in the snail to 58.6 ppm and in the fish to 0.92 ppm, along with its ethylene and the mono- and bis-phenols formed by O-dealkylation. The ecological magnification (E.M.) of ethoxychlor, defined as the ratio of the parent material in the fish to the concentration in the water, was 1500-fold as compared with an E.M. of only 0.7-fold for the ethoxyaniline.
Comparing the Biodegradability Indices (B.I.=total recovered polar metabolites/total recovered nonpolar metabolites) the values are 0.44 for ethoxychlor and 2.0 for ethoxyaniline.

Row | SMILES | LD50 (Musca domestica Rsp) | Topical LD50, Musca domestica Rsp, with pb (Musca domestica Rsp) | SR, Musca domestica Rsp (Musca domestica Rsp) | LC50 Culex fatigans larvae (Culex fatigans larvae) | LC50 Anopheles albimanus larvae [1] | insecticidal effectiveness / toxicity (in words) ([2]; overall, test insects of Table II) | LD50 (Phormia regina) | Topical LD50, Phormia regina, with pb (Phormia regina) | LD50 (Musca domestica Snaidm) | Topical LD50, Musca domestica Snaidm, with pb (Musca domestica Snaidm) | SR, Musca domestica Snaidm (Musca domestica Snaidm) | toxicity to adult insects (in words) ([2]; adult insects) | larvicidal effectiveness (in words) ([2]; mosquito larvae) | SR, Phormia regina (Phormia regina) | Concentration of ethoxyaniline equivalents in Culex (mosquito) [3] | Concentration of ethoxyaniline equivalents in Gambusia (fish) [3] | Concentration of ethoxyaniline equivalents in H2O [3] | Concentration of ethoxyaniline equivalents in Oedogonium (algae) [3] | Concentration of ethoxyaniline equivalents in Physa (snail) [3]
1 | CCOc1ccc(NC(c2ccccc2)C(Cl)(Cl)Cl)cc1 (centres unmarked) [XIX] | > 500 mg/kg | 120 μg per g | > 4 | > 1.0 ppm | 0.61 ppm | Toxicity was greatly decreased | > 250 mg/kg | > 250 μg per g | > 500 mg/kg | 31.0 μg per g | > 16 | – | – | – | – | – | – | – | –
2 | Clc1ccc(NC(c2ccc(Cl)cc2)C(Cl)(Cl)Cl)cc1 (centres unmarked) [Compound I] | 220 mg/kg | 25 μg per g | 8.8 | 0.026 ppm | 0.090 ppm | – | > 250 mg/kg | 42.5 μg per g | 115 mg/kg | 13.5 μg per g | 8.5 | low toxicity to adult insects | very effective larvicide | > 5.5 | – | – | – | – | –
3 | Cc1ccc(C(Nc2ccc(Cl)cc2)C(Cl)(Cl)Cl)cc1 (centres unmarked) [Compound XV] | ~500 mg/kg | 36.0 μg per g | 14 | 0.066 ppm | 0.13 ppm | – | 72.5 mg/kg | 62.5 μg per g | 90 mg/kg | 21.0 μg per g | 4.3 | – | – | 1.1 | – | – | – | – | –
4 | CCOc1ccc(C(Nc2ccc(C)cc2)C(Cl)(Cl)Cl)cc1 (stereo not drawn) [XI, α-trichloromethyl-p-ethoxybenzyl-p-methylaniline] | 14 mg/kg | 4.4 μg per g | 3.2 | 0.073 ppm | 0.085 ppm | – | 7.7 mg/kg | 4.2 μg per g | 12.5 mg/kg | 2.5 μg per g | 5.0 | – | – | – | – | – | – | – | –
5 | Cc1ccc(NC(c2ccc(Cl)cc2)C(Cl)(Cl)Cl)cc1 (centres unmarked) [Compound XVI] | 125 mg/kg | 30 μg per g | 4.2 | 0.18 ppm | 0.14 ppm | – | 36.2 mg/kg | 25 μg per g | 65 mg/kg | 16 μg per g | 4.1 | – | – | 1.45 | – | – | – | – | –
6 | CCOc1ccc(C(Nc2ccc(OC)cc2)C(Cl)(Cl)Cl)cc1 (centres unmarked) [XIII] | 41 mg/kg | 12.5 μg per g | 3.3 | 0.42 ppm | 0.68 ppm | – | 22 mg/kg | 12.5 μg per g | 23.5 mg/kg | 5.5 μg per g | 4.2 | – | – | 1.8 | – | – | – | – | –
7 | CCOc1ccc(NC(c2ccc(O)cc2)C(Cl)(Cl)Cl)cc1 (stereo not drawn) [C2 H5 OC6 H4 NHCH(CCl3)C6 H4 OH, α-trichloromethyl-p-hydroxybenzyl-p-ethoxyaniline] | – | – | – | – | – | – | – | – | – | – | – | – | – | – | 0.13 ppm | 0.08 ppm | 0.031 ppm | 0.43 ppm | 2.02 ppm
8 | CCOc1ccc(NC(c2ccc(Cl)cc2)C(Cl)(Cl)Cl)cc1 (centres unmarked) [VIII] | 45 mg/kg | 13.0 μg per g | 3.5 | 0.22 ppm | 0.26 ppm | – | 37.5 mg/kg | 13.2 μg per g | 19.5 mg/kg | 4.1 μg per g | 4.8 | – | – | 2.8 | – | – | – | – | –
9 | COc1ccc(C(Nc2ccc(Cl)cc2)C(Cl)(Cl)Cl)cc1 (centres unmarked) [V] | 35.5 mg/kg | 12.0 μg per g | 3.0 | 0.068 ppm | 0.12 ppm | – | 55 mg/kg | 15.2 μg per g | 23 mg/kg | 10.5 μg per g | 2.2 | – | – | 3.6 | – | – | – | – | –
10 | CCOc1ccc(NC(c2ccc3c(c2)OCO3)C(Cl)(Cl)Cl)cc1 (centres unmarked) [Compound XVII] | 35.5 mg/kg | 11.0 μg per g | 3.2 | 0.23 ppm | 0.25 ppm | – | > 250 mg/kg | 32.5 μg per g | 19.5 mg/kg | 3.8 μg per g | 5.1 | – | – | > 7.7 | – | – | – | – | –
11 | CCOc1ccc(NC(c2ccc(OC)cc2)C(Cl)(Cl)Cl)cc1 (centres unmarked) [XIV] | 37 mg/kg | 12.0 μg per g | 3.1 | 0.34 ppm | 1.0 ppm | – | 112 mg/kg | 20.0 μg per g | 30 mg/kg | 3.9 μg per g | 7.7 | – | – | 5.6 | – | – | – | – | –
12 | COc1ccc(C(Nc2ccc(C)cc2)C(Cl)(Cl)Cl)cc1 (centres unmarked) [IX] | 50 mg/kg | 12.0 μg per g | 4.5 | 0.26 ppm | 0.28 ppm | – | 16.5 mg/kg | 11.50 μg per g | 35 mg/kg | 8.5 μg per g | 4.1 | – | – | 1.4 | – | – | – | – | –
13 | CCOc1ccc(C(=O)O)cc1 [C2 H5 OC6 H4 C(O)OH, p-ethoxybenzoic acid] | – | – | – | – | – | – | – | – | – | – | – | – | – | – | 0.06 ppm | 0.03 ppm | 0.123 ppm | 0.38 ppm | 1.800 ppm
14 | CCOc1ccc(NC(c2ccc(C)cc2)C(Cl)(Cl)Cl)cc1 (centres unmarked) [XII] | 70 mg/kg | 19.5 μg per g | 3.6 | 0.33 ppm | 0.30 ppm | – | 95 mg/kg | 42.5 μg per g | 35 mg/kg | 14.5 μg per g | 2.4 | – | – | 2.2 | – | – | – | – | –
